Source: US9216956B2, “Deuterium-enriched 4-hydroxy-5-methoxy-N,1-dimethyl-2-oxo-N-[(4-trifluoro-methyl)phenyl]-1,2-dihydroquinoline-3-carboxamide” (ACTIVE BIOTECH AB, priority 2011, dated 2015)
“And” between values parts separate entries of the source, which are not always exact repeats. Equal entries are not always repeated. Each block holds one compound with its values, some of them ahead of it.

Key:
Water solubility = format: physicochemical
From the text: The water solubility of ABR-215050 and of its metabolites also was investigated. It is a well-known fact that metabolism in general aims to transform compounds to more water soluble entities (10), which mostly decreases toxicity but also facilitates renal elimination. […]

[1] = tested on: AhR (Aryl hydrocarbon Receptor) mediated induction of CYP1A1; assay: TV-cell assay: luciferase gene reporter assay for AhR mediated induction of CYP1A1 in TV101L (HepG2) cells; format: cell-based, human; conditions: TV-cell assay
Experimental: ABR-215050 was tested with respect to its CYP1A inducing capability in vitro in a TV-cell assay. This assay is a luciferase gene reporter assay developed for the measurement of AhR (Aryl hydrocarbon Receptor) mediated induction of CYP1A. Human CYP1A promoters and 5′-flanking sequences were cloned into firefly luciferase expression vectors and stably integrated into the human hepatoma cell line, HepG2 (9). The isolated cell line was renamed TV101L.
The mechanism for transcription of CYP1A1 involves the binding of the inducer to the Ah receptor followed by a translocation of the ligand-Ah-receptor complex to the nucleus, where it binds to specific enhancer sequences in the 5′-flanking region of the CYP1A1 gene. These sequences are referred to as xenobiotic responsive elements (XREs).
A luciferase gene reporter assay was used for the measurement of AhR mediated induction of CYP1A1. Human CYP1A1 promoters and 5′-flanking sequences were cloned into firefly luciferase expression vectors and stably integrated into the human hepatoma cell line, HepG2 (8). The isolated cell line was renamed TV101L.
The cells were seeded in 96 well tissue culture plates 24-48 hours prior to treatment with the test compound. After the addition of ABR-215050 at a concentration of 1, 10 and 100 μM, the cells were further incubated for 12-24 hours. The cells were harvested by the addition of lysis buffer followed by a freezing/thawing cycle. An enzymatic assay was used for the determination of luciferase activity.
The same assay as used for ABR-215050 was used. The concentrations of ABR-215691 that were used and the results obtained, expressed as fold induction of luciferase expression, are shown in Table 4 and in FIG. 1.

CYP1A1 = assay: In vivo CYP1A1 induction in rat, EROD activity of liver microsomes
Experimental: (§1) The in vivo induction of CYP1A1 and CYP1A2 after repeated administration of ABR-215050 and of ABR-215050-dx, respectively, was studied in rat.
(§2) Test preparations B and C and blank preparation A were made as follows: For preparation B, ABR-215050 was dissolved in NaOH and sterile water at a concentration of 0.5 mg/mL. The pH of the solution was adjusted to pH 7.4-8.5. Preparation C was made in the same way, using ABR-215050-dx. Preparation A was a blank containing only water. The preparations were stored in a refrigerator for a maximum of one week before use.
(§3) On arrival at the laboratory, the test animals were 9 weeks old Sprague Dawley male rats having a body weight of 250 g. They were divided into 3 groups and were allowed to acclimatize for at least 7 days before the test. During the whole acclimatization and test period, the animals received water and feed (Labfor R70, form Kimstad, Sweden) ad libitum, and were kept under a 12 hours dark/12 hours light cycle, at a temperature of 20±2° C. and a relative humidity of 50±15%.
(§4) Before administration of any test preparation, the body weight of each animal was measured and the individual dose to be administered to an animal was determined based on the weight of the animal. Administration was performed perorally during 4 days, cf.
(§5) At 24 h after administration of the final dose, the animals were weighed and from each animal a final blood sample was withdrawn for a pharmacokinetic analysis. The animals then were euthanized and from each one the liver was withdrawn, weighed, and immediately frozen in crushed dry ice. The livers then were stored at −70° C. until preparation of microsomes.
(§6) Microsomes were prepared according to the method M-0287 “Preparation of subcellular fractions from animal tissues” and then kept at −70° C. until analysis.
(§7) The total protein concentration of the microsomal fraction was determined according to the method M-0289 “Determination of Protein according to Hartree”.

[2] = In vivo pharmacokinetics in rat: plasma levels of parents and amide-N demethyl metabolite after 1:1 mixture; conditions: for Plasma level: peroral 2.5 mg/kg of each compound (1:1 mixture)
From the text: Therefore, the pharmacokinetic characteristics of the amide-N methyl deuterated ABR-215050 (herein below referred to as ABR-215050-dx), wherein the amide-N methyl moiety was tri-deuterated, compared to the non-deuterated parent compound were studied in rat. […] In other words: relative to ABR-215050, the in vivo formation of ABR-215691 was reduced to only 25% when ABR-215050-dx was used.
A deuterated (also referred to as deuterium-enriched) ABR-215050 was synthesized, wherein the amide-N methyl moiety was trideuterated (ABR-215050-dx). This deuterated compound was diluted with non-deuterated ABR-215050 to a molar ratio of 1:1. The 1:1 equivalent molar mixture was administrated to rats in an in vivo experiment. Because of additional 13-carbon labeling in the quinoline scaffold, the formed amide-N demethyl metabolites could be measured selectively by means of HPLC-MS (High performance Liquid Chromatography with Mass Spectrometric detection). In Table 5, the plasma levels of ABR-215050-dx and ABR-215050 (in nM) measured in 4 different rats are shown, as well as the ratio of these two compounds.

LNCaP tumor = assay: Anti-tumor effect on subcutaneous LNCaP-19 tumor in Nude BALB/c mice; format: in vivo, mouse; conditions: 10 mg/kg/day via drinking water from day 7
Experimental: The anti-tumor effect of deuterated ABR-215050 was studied in mouse.
The castration resistant subline LNCaP-19 was previously established from LNCaP cells (12). Cells were maintained as previously described (13). The LNCaP-19 cells were between passage 10 and 23 when used in the experiments. Passage 1 is defined as the first passage in our laboratory. The cells were tested and found free from mycoplasma.
Male athymic Nude BALB/c mice (age 8 weeks) were purchased from Taconic (Lille Skensved, Denmark). For subcutaneous implantation, one million tumor cells suspended in 200 μl Matrigel (BD Bioscience, Bedford, Mass.) were inoculated on the flank of the mice. The tumor size was measured by a caliper once a week throughout the experiment and the tumor take was 75% in the untreated control group (n=12). In the tumor growth experiment, ABR-215050-dx (10 mg/kg/day) was administered via drinking water from day 7. To assure appropriate dose was given with no significant fluctuations, water consumption was monitored for each animal cage during the entire experiment. […] Animals were sacrificed when the average tumor size for the control group reached a volume of 900±100 mm^3 or when the tumor volume for an individual animal reached 1200 mm^3 The results are illustrated in FIG. 7.

CYP1A2 = assay: In vivo CYP1A2 induction in rat, MROD activity of liver microsomes; conditions: rat, in vivo
Experimental: as §1, §2, §3, §4, §5, §6, §7

water solubility (in words) (Water solubility): highly water soluble
CYP1A induction (in words) [1]: not to induce CYP1A
Compound: COc1cccc2[nH]c(=O)c(C(=O)N(C)c3ccc(C(F)(F)F)cc3)c(O)c12 [ABR-219694]

water solubility (in words) (Water solubility): highly water soluble
CYP1A induction (in words) [1]: not to induce CYP1A
Compound: CN(C(=O)c1c(O)c2c(O)cccc2n(C)c1=O)c1ccc(C(F)(F)F)cc1 [ABR-222097]

reduction of the fold induction of CYP1A1 versus ABR-215050 (CYP1A1; (42-11.5)/42×100%): 73%
CYP1A1 activity (EROD), Mean (CYP1A1; group mean, 1 mg/kg perorally days 1-4): 534 pmol/mg prot/min
mean fold induction of CYP1A1 (CYP1A1; group mean, versus water group): 11.5
CYP1A1 Fold induction (CYP1A1; individual rat, versus water group): 12 and 11
Ratio of metabolite plasma levels, Mean ([2]; mean of rats 1-4): 0.26
Reduction of amide-N demethylation, Mean ([2]; mean of rats 1-4): 74.1%
Plasma levels of ABR-215691 from the administered compound, Mean ([2]; mean of rats 1-4 (1-4 h), peroral 2.5 mg/kg): 74.8 nM
in vivo formation of ABR-215691 relative to ABR-215050 ([2]; rat): 25%
Ratio ABR-215050-dx/ABR-215050 (plasma levels) ([2]; rat No 1, 1 h): 0.97
Ratio of metabolite plasma levels (ABR-215691 from ABR-215050-dx / from ABR-215050) ([2]; rat No 1, 1 h): 0.24
Reduction of amide-N demethylation ([2]; rat No 1, 1 h): 75.8%
Plasma levels of ABR-215691 from the administered compound ([2]; rat No 1, 1 h, peroral 2.5 mg/kg): 64.0 nM
Plasma level ([2]; rat No 1, 1 h): 13394 nM
Ratio ABR-215050-dx/ABR-215050 (plasma levels) ([2]; rat No 2, 2 h): 0.99
Ratio of metabolite plasma levels (ABR-215691 from ABR-215050-dx / from ABR-215050) ([2]; rat No 2, 2 h): 0.30
Reduction of amide-N demethylation ([2]; rat No 2, 2 h): 70.5%
Plasma levels of ABR-215691 from the administered compound ([2]; rat No 2, 2 h, peroral 2.5 mg/kg): 93.9 nM
Plasma level ([2]; rat No 2, 2 h): 13665 nM
Ratio ABR-215050-dx/ABR-215050 (plasma levels) ([2]; rat No 3, 3 h): 0.99
Ratio of metabolite plasma levels (ABR-215691 from ABR-215050-dx / from ABR-215050) ([2]; rat No 3, 3 h): 0.24
Reduction of amide-N demethylation ([2]; rat No 3, 3 h): 75.7%
Plasma levels of ABR-215691 from the administered compound ([2]; rat No 3, 3 h, peroral 2.5 mg/kg): 46.6 nM
Plasma level ([2]; rat No 3, 3 h): 7322 nM
Ratio ABR-215050-dx/ABR-215050 (plasma levels) ([2]; rat No 4, 4 h): 1.00
Ratio of metabolite plasma levels (ABR-215691 from ABR-215050-dx / from ABR-215050) ([2]; rat No 4, 4 h): 0.25
Reduction of amide-N demethylation ([2]; rat No 4, 4 h): 74.6%
Plasma levels of ABR-215691 from the administered compound ([2]; rat No 4, 4 h, peroral 2.5 mg/kg): 94.6 nM
Plasma level ([2]; rat No 4, 4 h): 17824 nM
mean fold induction of CYP1A2 (CYP1A2): 5.5
reduction of the fold induction of CYP1A2 versus ABR-215050 (CYP1A2): 68%
CYP1A2 activity (MROD), Mean (CYP1A2; 1 mg/kg): 111 pmol/mg prot/min
Compound: [2H]C([2H])([2H])N(C(=O)c1c(O)c2c(OC)cccc2n(C)c1=O)c1ccc(C(F)(F)F)cc1 [ABR-215050-dx, 4-Hydroxy-5-methoxy-N-deuteriomethyl-1-methyl-2-oxo-N-[(4-trifluoromethyl)phenyl]-1,2-dihydroquinoline-3-carboxamide]
CYP1A1 activity (EROD) (CYP1A1; individual rat, 1 mg/kg perorally days 1-4, liver microsomes 24 h after final dose, 1 mg/kg): 556 pmol/mg prot/min and 511 pmol/mg prot/min
formation of demethylated metabolite compared to non-deuterium labeled ABR-215050 (in words) ([2]; rat): diminished by as much as a factor of four
anti-tumor effect (in words) (LNCaP tumor): retains a high therapeutic activity
